System: Myzus persicae
Assay: Myzus persicae - spray test
Assay type: in vivo
Details: foliar, 144 h, application rate 500 g/ha, after 6 days, Chinese cabbage leaf discs, all stages of green peach aphid, 100% = all aphids killed, read-out: efficacy
Experimental: To produce further test concentrations, the formulation is diluted with emulsifier-containing water.

Row | Structure (SMILES) | pest or weed control at 500 g/ha [%]
1 | CNC(=O)c1cc2cn(-c3cnccn3)nc2cn1 [Compound 14] | 90
2 | O=C(NC1CC1)c1cc2cn(-c3cccnc3)nc2cn1 [Compound 29] | 90
3 | O=C(NCC(F)F)c1cc2cn(-c3cccnc3)nc2cn1 [Compound 36] | 90
4 | CN(C)C(=O)c1cc2cn(-c3cncc(F)c3)nc2cn1 [Compound 20] | 90
5 | CNC(=O)c1cc2cn(-c3cncc(F)c3)nc2cn1 [Compound 19] | 90
6 | CON(C)C(=O)c1cc2cn(-c3cncc(F)c3)nc2cn1 [Compound 26] | 90
7 | CCNC(=O)c1cc2cn(-c3cccnc3)nc2cn1 [Compound 31] | 90
8 | CON(C)C(=O)c1cc2cn(-c3cccnc3)nc2cn1 [Compound 11] | 90

System: Musca domestica
Assay: Musca domestica test
Assay type: in vivo
Details: application rate 100 ppm; after 2 days; adult houseflies; 100% = all flies killed
Experimental: • Solvent: dimethyl sulfoxide
To produce a suitable preparation of active compound, 10 mg of active compound are mixed with 0.5 ml of dimethyl sulfoxide, and the concentrate is diluted with water to the desired concentration.
Vessels containing a sponge treated with sugar solution and the active compound formulation of the desired concentration are populated with 10 adult houseflies (Musca domestica).
After 2 days, the kill in % is determined. 100% means that all of the flies have been killed; 0% means that none of the flies have been killed.

Row | Structure (SMILES) | efficacy (kill) [%]
9 | CNC(=O)c1cc2cn(-c3cnccn3)nc2cn1 [Compound 14] | 80
